Source: ChEMBL document CHEMBL4342407, “Thieno[2,3-d]pyrimidine as a promising scaffold in medicinal chemistry: Recent advances” (Bioorg Med Chem, 2019)

What was measured:
[1] = species on record: Homo sapiens; assay: Selectivity ratio of Ki for human A1 receptor expressed in CHO cells to Ki for human A2A receptor expressed in CHO cells; assay type: cell-based
[2] = species on record: Homo sapiens; assay: Selectivity ratio of Ki for human A2A receptor expressed in CHO cells to Ki for human A3 receptor expressed in CHO cells; assay type: cell-based
[3] = biological target: T1, Adenosine receptor A1 (Homo sapiens, UniProt P30542); assay: Displacement of [3H]-CCPA binding from human A1 receptor expressed in CHO cells by radioligand competitive binding assay; assay type: cell-based
T1 sequence (P30542 whole entry): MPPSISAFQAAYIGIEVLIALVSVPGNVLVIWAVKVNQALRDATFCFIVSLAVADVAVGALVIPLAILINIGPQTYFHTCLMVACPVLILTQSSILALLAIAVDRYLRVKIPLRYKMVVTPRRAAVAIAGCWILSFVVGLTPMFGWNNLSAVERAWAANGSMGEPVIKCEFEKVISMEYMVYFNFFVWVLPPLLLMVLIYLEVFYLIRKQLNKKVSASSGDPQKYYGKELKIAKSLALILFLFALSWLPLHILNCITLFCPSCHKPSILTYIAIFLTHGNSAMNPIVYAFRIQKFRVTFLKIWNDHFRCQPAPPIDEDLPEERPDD

[4] = biological target: Adenosine receptor A2a (Homo sapiens, UniProt P29274); assay: Displacement of [3H]-NECA from human A2A receptor expressed in CHO cells by radioligand competitive binding assay; assay type: cell-based
Chain of Adenosine receptor A2a (P29274 whole entry): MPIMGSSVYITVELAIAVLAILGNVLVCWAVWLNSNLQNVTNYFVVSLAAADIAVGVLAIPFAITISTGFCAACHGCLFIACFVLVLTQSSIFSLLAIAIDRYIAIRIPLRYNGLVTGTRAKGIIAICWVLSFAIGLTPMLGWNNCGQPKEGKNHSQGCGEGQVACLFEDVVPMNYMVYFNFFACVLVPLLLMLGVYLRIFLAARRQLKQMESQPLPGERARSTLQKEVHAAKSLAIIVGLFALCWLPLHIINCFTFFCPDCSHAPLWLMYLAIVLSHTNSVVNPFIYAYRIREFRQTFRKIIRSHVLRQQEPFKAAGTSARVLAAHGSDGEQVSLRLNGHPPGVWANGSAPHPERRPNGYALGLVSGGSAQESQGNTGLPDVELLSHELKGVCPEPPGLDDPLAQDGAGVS

[5] = biological target: T2, Adenosine receptor A3 (Homo sapiens, UniProt P0DMS8); assay: Displacement of [3H]-HEMADO from human A3 receptor expressed in CHO cells by radioligand competitive binding assay; assay type: cell-based
T2 sequence (P0DMS8 whole entry): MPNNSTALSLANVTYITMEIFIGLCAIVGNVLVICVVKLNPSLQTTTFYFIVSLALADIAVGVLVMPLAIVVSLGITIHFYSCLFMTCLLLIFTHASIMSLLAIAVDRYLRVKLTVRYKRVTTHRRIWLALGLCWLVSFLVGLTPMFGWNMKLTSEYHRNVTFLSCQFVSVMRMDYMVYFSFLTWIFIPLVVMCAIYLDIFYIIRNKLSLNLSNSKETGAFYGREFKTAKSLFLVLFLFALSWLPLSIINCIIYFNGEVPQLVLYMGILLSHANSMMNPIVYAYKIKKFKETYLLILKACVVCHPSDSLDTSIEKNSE

[6] = species on record: Homo sapiens; assay: Selectivity ratio of Ki for human A1 receptor expressed in CHO cells to Ki for human A3 receptor expressed in CHO cells; assay type: cell-based
[7] = biological target: Cyclin-dependent kinase 4/cyclin D1 (Homo sapiens, UniProt P11802); assay: Inhibition of CDK4/cyclin D1 (unknown origin) expressed in baculovirus infected Sf9 insect cells using GST-Rb as substrate in presence of [33P] ATP incubated for 30 mins
Chain of Cyclin-dependent kinase 4/cyclin D1 (P11802 whole entry): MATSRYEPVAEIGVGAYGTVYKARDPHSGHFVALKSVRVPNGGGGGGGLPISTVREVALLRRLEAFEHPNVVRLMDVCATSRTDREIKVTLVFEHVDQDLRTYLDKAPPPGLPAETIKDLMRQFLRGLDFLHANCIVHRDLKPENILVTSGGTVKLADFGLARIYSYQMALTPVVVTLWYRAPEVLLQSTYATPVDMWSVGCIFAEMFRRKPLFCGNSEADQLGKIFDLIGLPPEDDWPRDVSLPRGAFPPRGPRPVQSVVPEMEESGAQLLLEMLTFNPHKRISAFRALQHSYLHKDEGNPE
Chain of Cyclin-dependent kinase 4/cyclin D1 (P24385 whole entry, further chain): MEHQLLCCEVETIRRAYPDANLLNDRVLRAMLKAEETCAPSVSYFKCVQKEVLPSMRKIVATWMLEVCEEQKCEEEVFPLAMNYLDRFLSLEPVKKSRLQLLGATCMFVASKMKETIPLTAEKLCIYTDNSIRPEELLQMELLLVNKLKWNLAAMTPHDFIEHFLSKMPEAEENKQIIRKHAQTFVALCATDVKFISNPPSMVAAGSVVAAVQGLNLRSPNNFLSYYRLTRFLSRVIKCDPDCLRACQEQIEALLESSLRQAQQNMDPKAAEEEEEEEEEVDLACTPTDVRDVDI

[8] = species on record: Homo sapiens; assay: Selectivity ratio of IC50 for CDK2/cyclin E (unknown origin) expressed in baculovirus infected Sf9 insect cells to IC50 for CDK4/cyclin D1 (unknown origin) expressed in baculovirus infected Sf9 insect cells
[9] = biological target: Cyclin-dependent kinase 2/cyclin E1 (Homo sapiens, UniProt P24941); assay: Inhibition of CDK2/cyclin E (unknown origin) expressed in baculovirus infected Sf9 insect cells using GST-Rb as substrate in presence of [33P] ATP incubated for 30 mins
[10] = tested on: Bacillus subtilis; assay: Antibacterial activity against Bacillus subtilis assessed as zone inhibition at 100 ug/ml; assay type: functional; conditions: read-out: IZ
[11] = tested on: Escherichia coli; assay: Antibacterial activity against Escherichia coli assessed as zone inhibition at 100 ug/ml; assay type: functional; conditions: read-out: IZ
[12] = tested on: Klebsiella pneumoniae; assay: Antibacterial activity against Klebsiella pneumoniae assessed as zone inhibition at 100 ug/ml; assay type: functional; conditions: read-out: IZ
[13] = tested on: Staphylococcus aureus; assay: Antibacterial activity against Staphylococcus aureus assessed as zone inhibition at 100 ug/ml; assay type: functional; conditions: read-out: IZ
[14] = tested on: Human alphaherpesvirus 1; assay: Antiviral activity against Herpes simplex virus 1 at 50 ug/10^5; assay type: functional
[15] = tested on: Human alphaherpesvirus 1; assay: Antiviral activity against Herpes simplex virus 1 at 20 ug/10^5; assay type: functional
[16] = Inhibition of Influenza A virus H3N2 Neuraminidase
[17] = tested on: Rattus norvegicus; assay: Antiinflammatory activity in gamma irradiated rat assessed as reduction in serum TNFalpha level at 150 mg/kg, ip administered once daily for 7 consecutive days by ELISA (reference value: 105.07 +/- 3.925 pg/ml); assay type: functional
[18] = tested on: Rattus norvegicus; assay: Antiinflammatory activity in gamma irradiated rat assessed as reduction in COX-2 level in liver tissue homogenates at 150 mg/kg, ip administered once daily for 7 consecutive days by ELISA (reference value: 89.50 +/- 2.617 ng/ml); assay type: functional
[19] = tested on: Rattus norvegicus; assay: Antiinflammatory activity in gamma irradiated rat assessed as reduction in serum IL-6 level at 150 mg/kg, ip administered once daily for 7 consecutive days by ELISA (reference value: 103.87 +/- 3.273 pg/ml); assay type: functional
[20] = tested on: Rattus norvegicus; assay: Antiinflammatory activity in gamma irradiated rat assessed as reduction in NFkappaB level in liver tissue homogenates at 150 mg/kg, ip administered once daily for 7 consecutive days by ELISA (reference value: 258.33 +/- 4.216 pg/ml); assay type: functional
[21] = tested on: Hepatovirus A; assay: Antiviral activity against Hepatitis A virus infected in HepG2 cells assessed as virus inhibition at 40 ug/L incubated overnight with virus followed by inoculation and measured after 1 hr by crystal violet staining based plaque reduction assay; assay type: functional
[22] = tested on: Rattus norvegicus; assay: Antiinflammatory activity in Sprague-Dawley rat assessed as inhibition of carrageenan-induced edema at 15 mg/kg, po pretreated for 1 hr followed by carrageenan challenge and measured after 4 hrs by mercury plethysmometer relative to control; assay type: functional
[23] = Ulcerogenic activity in Sprague-Dawley rat assessed as ulcer index at 20 mg/kg, ip pretreated followed by pylorus ligation and measured at 4 hrs post ligation; assay type: toxicity, organism-based; conditions: in vivo
[24] = tested on: Mus musculus; assay: Analgesic activity in Swiss albino mouse assessed as protection against acetic acid-induced writhing at 15 mg/kg, po pretreated for 30 mins followed by acetic acid challenge and measured after 20 mins relative to control; assay type: functional
[25] = tested on: A549; assay: Antiproliferative activity against human A549 after 18 hrs by MTT assay; assay type: functional, cell-based; conditions: A549, 18 h
[26] = tested on: HCT-116; assay: Antiproliferative activity against human HCT116 after 18 hrs by MTT assay; assay type: functional, cell-based; conditions: HCT-116, 18 h

In the case of `CC(=O)Nc1nc2sc(C)c(C)c2c(=O)[nH]1`, the Ratio Ki [1] is reported as > 1, the Ratio Ki [2] is reported as > 57 and the Ki [3] is reported as > 30000 nM. The Ki [4] was > 30000 nM, the Ki [5] was 524 nM and the Ratio Ki [6] was > 57.

In the case of `CNCc1csc(/C=N/Nc2ncnc3sc(C(C)C(C)C)cc23)n1` (centres undefined), the IC50 [7] is reported as 22 nM, the Ratio IC50 [8] is reported as 40 and the IC50 [9] is reported as 880 nM.

For `CC(=O)Nc1nc2sc3c(c2c(=O)[nH]1)CCC3`, the Ratio Ki [1] was > 3.3, the Ratio Ki [2] was > 22 and the Ki [3] was > 100000 nM. For the same compound, the Ki [4] was > 30000 nM, the Ki [5] was 1350 nM and the Ratio Ki [6] was > 74.

In the case of `CC1(C)S[C@@H]2[C@H](NC(=O)[C@H](N)c3ccc(O)cc3)C(=O)N2[C@H]1C(=O)O` [AMOXICILLIN], the zone of inhibition at 100 µg/mL [10] is reported as 15.5 mm, the zone of inhibition at 100 µg/mL [11] is reported as 19.5 mm and the zone of inhibition at 100 µg/mL [12] is reported as 18 mm. It also gave a zone of inhibition at 100 µg/mL [13] of 17.6 mm.

In the case of `Cc1sc2nc(NC(=O)c3ccccc3)[nH]c(=O)c2c1C`, the Ratio Ki [1] is reported as > 46, the Ratio Ki [2] is reported as 5.24 and the Ki [3] is reported as > 30000 nM. For the same compound, the Ki [4] was 650 nM, the Ki [5] was 124 nM and the Ratio Ki [6] was > 240.

Work on `OCCSc1ncnc2sc3c(c12)-c1ccccc1CC3` yielded an Activity [14] of 30% and an Activity [15] of 5%.

`CC(N)c1csc(/C=N/Nc2ncnc3sc(C(C)(C)CF)cc23)n1` (centres undefined) gave an IC50 [7] of 46 nM, a Ratio IC50 [8] of 14.7 and an IC50 [9] of 680 nM.

With `Nc1nc2c(ncn2COCCO)c(=O)[nH]1` [ACYCLOVIR] the Activity [15] was 100%.

With `O=C1CCC(=O)N1Nc1nc(-c2c[nH]c3ccccc23)nc2sc3c(c12)CCCC3` the IC50 [16] was 21 nM.

For `CCC(C)c1cc2c(N/N=C/c3nc(CNC)cs3)ncnc2s1` (centres undefined), the IC50 [7] was 29 nM, the Ratio IC50 [8] was 15.2 and the IC50 [9] was 440 nM.

In the case of `CCOC(=O)c1sc2ncnc(NCC(=O)O)c2c1C`, the “Serum TNFalpha level” value [17] is reported as 48.32 pg/mL, the “COX-2 level in liver homogenate” value [18] is reported as 31.17 ng/mL and the “Serum IL-6 level” value [19] is reported as 46.53 pg/mL. For the same compound, the “NFkappaB level in liver tissue” value [20] was 89.83 pg/mL.

With `Cc1sc2nc(N)nc(-n3cncn3)c2c1C` the Ratio Ki [1] was 7.2, the Ratio Ki [2] was > 0.19 and the Ki [3] was 40800 nM. The Ki [4] was 5690 nM, the Ki [5] was > 30000 nM and the Ratio Ki [6] was > 1.4.

In the case of `CC(=O)OC[C@H]1O[C@@H](Sc2nc3sc4c(c3c(=O)n2-c2ccccc2)CCCCC4)[C@H](OC(C)=O)[C@@H](OC(C)=O)[C@@H]1OC(C)=O`, the “inhibition (INH)” value [21] is reported as 50%.

In the case of `Nc1nc(-n2ccnc2)c2c3c(sc2n1)CCCC3`, the Ratio Ki [1] is reported as 2.6, the Ratio Ki [2] is reported as > 0.14 and the Ki [3] is reported as 10400 nM. For the same compound, the Ki [4] was 4060 nM, the Ki [5] was > 30000 nM and the Ratio Ki [6] was > 0.35.

Compound `COCCSc1nc(C)nc2sc3c(c12)-c1ccccc1CC3` has an Activity [14] of 45% and an Activity [15] of 5%.

With `CC(=O)Cc1c(C(C)C)sc2nc(S)[nH]c(=S)c12` the inhibition in vivo at 15 mg/kg [22] was 71.6%, the UI [23] was 1.1 and the Activity [24] was 60%.

Work on `C/C(=N\Nc1nc(-c2c[nH]c3ccccc23)nc2sc3c(c12)CCCC3)c1ccccc1` yielded an IC50 [16] of 237 nM.

For `CCOC(=O)c1sc2ncnc(N[C@@H](CC(=O)O)C(=O)O)c2c1C`, the “Serum TNFalpha level” value [17] was 51.35 pg/mL, the “COX-2 level in liver homogenate” value [18] was 40.5 ng/mL and the “Serum IL-6 level” value [19] was 59.85 pg/mL. The “NFkappaB level in liver tissue” value [20] was 88.17 pg/mL.

With `CCc1cc2c(OCc3cc(-c4ccc(Cl)cc4)no3)ncnc2s1` the IC50 [25] was 45500 nM and the IC50 [26] was 33300 nM.
